Test results reported in publication PMC4710522, “A Novel Triazolopyridine-Based Spleen Tyrosine Kinase Inhibitor That Arrests Joint Inflammation” (PLoS ONE, 2016).
Like-named read-outs stand apart in the source and are kept apart here.

Assays:
[1] = system: rat collagen-induced arthritis model; assay: rat collagen-induced arthritis (CIA) model, paw swelling; format: in vivo; details: for inhibition of paw swelling: 8 days
Method: (§1) Female Lewis rats (150 – 170g; Charles River Laboratories) were house standard shoebox cages, fed Harlan-Tekald diet and water ad libitum and maintained on a 12h light/dark cycle. For induction of arthritis rats were anesthetized with isofluorane and their entire dorsal area shaved. Rats were injected (intradermal) with 100 μl of equal volumes of collagen (Chrondrex, Redmond, WA) and IFA (Sigma Chemicals, St. Louis, MO) emulsion in 10 sites across the dorsal region. At disease onset 11 days following immunization animals were randomized into groups based on their ankle measurements and test article administration was initiated. Rats were dosed orally with vehicle (20% Captisol®), Indomethacin (Sigma Chemicals, St. Louis, MO, 2mg/kg) or CC-509 (15, 25mg/kg QD or 15mg/kg BID) in a dose volume of 5ml/kg. […] On the last day of the study animals were split into 2 cohorts and bleed twice via tail bleed under isofluorane anesthesia and a third terminal bleed following CO2 asphyxiation to obtain a time course of plasma compound exposure at 30minutes, 1, 2, 4, 8 and 24h after the last dose of CC-509.
For the TEL-Syk assay, the intensity values for the 700 and 800 channel were exported as text files in ActivityBase (IDBS, Guildford, UK) to derive the ratios that reflect kinase activity. For LAD2 experiments, enzyme activity values were exported as text files into ActivityBase to calculate “percent release” according to the formula: 100* supernatant OD405/ (supernatant OD405 + (pellet OD405*pellet dilution factor)). For the basophil and B-cells assays, flow cytometry data was exported from the FACS Array and processed using FloJo software package (TreeStar, Inc., Ashland, Oregon). For the JAK2 HEL and Ramos NFAT β-lactamase assays, the fluorescence values obtained at 460 nm and 530 nm were exported into ActivityBase to calculate response ratios. For the neutrophil, macrophage, KDR, and JAK1/3 assays, raw values were exported into ActivityBase to calculate percent inhibition. All IC50 calculations were generated using XLfit (IDBS, Guildford, UK) algorithm 205 within Excel. For PCA, the OD from the saline injected site was subtracted from the OD from the anti-DNP IgE injected site. Evans blue dye extravasation was expressed as mean ± SEM and % inhibition for the test article groups was normalized to the cromolyn positive control. For the CIA model paw measurements (left and right ankle diameter) were taken for each individual animal and averaged. The mean data from each group was plotted and either the AUC(day 11–18) or % inhibition on day 18 was calculated. Data is expressed as mean ± SEM of each group with n = 6–12. Statistical analysis was performed with Prism Graphpad using one-way ANOVA followed by Dunnett’s comparison using the vehicle group as the control or for measurements over time a 2 way ANOVA followed by a Dunnett’s multiple comparison test. Statistical significance was deemed as * = p<0.05, **p<0.01, ***p<0.001 and p<0.0001.

[2] = target: T1, cSRC_h (Homo sapiens, UniProt P12931); assay: SelectScreen kinase assay; format: biochemical; details: KM ATP, read-out: % control
T1 construct: purchased Life Technologies (Invitrogen) SelectScreen, Z'-LYTE / Adapta

[3] = target: T2, PDE2A (Homo sapiens, UniProt O00408); assay: non-kinase enzyme panel (CEREP); format: biochemical
T2 construct: purchased CEREP (contract assay)
Method: (§2) Syk kinase mode of inhibition studies, including parameters described in Fig 1, were conducted on the LC3000 platform by Caliper Life Sciences (Hopkinton, MA) according to standard protocols developed by the supplier. […] Non-kinase enzyme assays and GPCR, ion channel, and transporter binding assays were run by CEREP (France). Non-GLP manual patch clamp hERG assays were run by ChanTest (Cleveland, Ohio). Vivid® Assay kits (Life Technologies) were used to measure the cytochrome P450 inhibition of the compound against CYP3A, CYP2C9, CYP2C19, CYP2D6, and CYP1A2, as described.

[4] = target: T3, 5-lipoxygenase (Homo sapiens, UniProt P09917); assay: non-kinase enzyme panel (CEREP); format: biochemical
T3 construct: CEREP (contract assay)
Method: as §2

[5] = target: T4, PDE5 (Homo sapiens, UniProt O76074); assay: non-kinase enzyme panel (CEREP); format: biochemical
T4 construct: purchased CEREP (contract assay)
Method: as §2

[6] = plasma compound exposure in rat CIA study; format: in vivo; details: for AUC(0-t): female, Lewis, rat, plasma, po, read-out: AUC0-24h in plasma after the last day of dosing
Method: as §1

[7] = target: T5, CK2-alpha2_h (Homo sapiens, UniProt P19784); assay: SelectScreen kinase assay; format: biochemical; details: KM ATP, read-out: % control
T5 construct: purchased Life Technologies (Invitrogen) SelectScreen, Z'-LYTE / Adapta

[8] = target: T6, Rsk1_h (Homo sapiens, UniProt Q15418); assay: SelectScreen kinase assay; format: biochemical; details: KM ATP, read-out: % control
T6 construct: purchased Life Technologies (Invitrogen) SelectScreen, Z'-LYTE / Adapta

[9] = system: rat passive cutaneous anaphylaxis model; details: 10 mg/kg dose; cited from earlier work

T2 sequence (O00408 whole entry, species assumed): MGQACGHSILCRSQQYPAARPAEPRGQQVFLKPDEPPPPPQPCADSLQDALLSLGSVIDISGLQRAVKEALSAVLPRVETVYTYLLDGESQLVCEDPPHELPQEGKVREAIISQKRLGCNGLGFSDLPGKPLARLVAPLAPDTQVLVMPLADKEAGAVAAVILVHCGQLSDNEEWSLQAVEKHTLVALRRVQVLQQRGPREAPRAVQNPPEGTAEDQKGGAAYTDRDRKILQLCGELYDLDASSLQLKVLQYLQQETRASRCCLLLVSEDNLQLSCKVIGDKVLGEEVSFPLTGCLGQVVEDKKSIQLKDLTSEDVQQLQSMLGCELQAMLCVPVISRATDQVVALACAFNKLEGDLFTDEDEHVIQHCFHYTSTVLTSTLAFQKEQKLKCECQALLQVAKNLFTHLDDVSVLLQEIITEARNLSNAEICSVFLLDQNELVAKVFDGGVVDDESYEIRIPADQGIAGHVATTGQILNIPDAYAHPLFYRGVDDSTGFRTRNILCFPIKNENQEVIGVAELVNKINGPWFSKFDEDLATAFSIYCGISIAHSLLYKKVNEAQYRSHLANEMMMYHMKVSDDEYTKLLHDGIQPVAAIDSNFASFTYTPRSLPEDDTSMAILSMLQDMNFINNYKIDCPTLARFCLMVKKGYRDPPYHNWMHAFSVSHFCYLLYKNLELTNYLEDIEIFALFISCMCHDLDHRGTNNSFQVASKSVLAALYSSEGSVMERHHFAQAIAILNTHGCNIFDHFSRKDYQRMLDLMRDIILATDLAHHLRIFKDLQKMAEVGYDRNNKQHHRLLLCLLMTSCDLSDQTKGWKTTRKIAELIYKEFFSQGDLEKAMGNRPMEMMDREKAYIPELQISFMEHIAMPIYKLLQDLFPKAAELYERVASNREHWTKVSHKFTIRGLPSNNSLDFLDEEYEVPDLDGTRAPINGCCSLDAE
T1 sequence (P12931 whole entry): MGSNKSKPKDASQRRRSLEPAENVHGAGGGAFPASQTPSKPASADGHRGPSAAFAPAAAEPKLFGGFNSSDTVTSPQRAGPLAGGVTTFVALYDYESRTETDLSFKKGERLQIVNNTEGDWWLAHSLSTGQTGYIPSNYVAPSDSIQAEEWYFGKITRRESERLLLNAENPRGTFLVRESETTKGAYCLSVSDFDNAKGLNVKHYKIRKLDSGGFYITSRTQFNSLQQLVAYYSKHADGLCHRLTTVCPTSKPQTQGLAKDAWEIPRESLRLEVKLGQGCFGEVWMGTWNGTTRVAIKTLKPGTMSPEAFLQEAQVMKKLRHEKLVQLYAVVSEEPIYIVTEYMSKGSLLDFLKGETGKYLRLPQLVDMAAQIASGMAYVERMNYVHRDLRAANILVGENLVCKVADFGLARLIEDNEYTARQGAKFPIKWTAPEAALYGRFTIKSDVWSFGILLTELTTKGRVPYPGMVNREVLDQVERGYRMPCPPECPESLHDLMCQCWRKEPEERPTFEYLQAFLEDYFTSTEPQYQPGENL
T3 sequence (P09917 whole entry, species assumed): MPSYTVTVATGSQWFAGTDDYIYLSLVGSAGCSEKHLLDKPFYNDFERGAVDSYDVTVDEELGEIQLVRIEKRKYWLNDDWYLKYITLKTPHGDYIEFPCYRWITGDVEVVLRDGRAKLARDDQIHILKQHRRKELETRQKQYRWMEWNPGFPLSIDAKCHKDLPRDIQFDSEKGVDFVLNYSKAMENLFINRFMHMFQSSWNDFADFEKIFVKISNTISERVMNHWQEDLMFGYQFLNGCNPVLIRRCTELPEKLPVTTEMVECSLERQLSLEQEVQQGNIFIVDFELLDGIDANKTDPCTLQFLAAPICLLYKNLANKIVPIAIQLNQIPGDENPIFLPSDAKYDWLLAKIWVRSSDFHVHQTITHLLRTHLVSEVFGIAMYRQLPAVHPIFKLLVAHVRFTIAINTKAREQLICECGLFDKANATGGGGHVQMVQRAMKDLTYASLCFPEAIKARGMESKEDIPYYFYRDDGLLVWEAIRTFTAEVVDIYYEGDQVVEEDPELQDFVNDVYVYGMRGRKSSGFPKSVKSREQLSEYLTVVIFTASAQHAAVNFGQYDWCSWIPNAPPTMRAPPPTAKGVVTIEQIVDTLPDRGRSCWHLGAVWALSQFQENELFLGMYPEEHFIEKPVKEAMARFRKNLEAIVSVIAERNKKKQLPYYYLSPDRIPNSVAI
T5 sequence (P19784 whole entry): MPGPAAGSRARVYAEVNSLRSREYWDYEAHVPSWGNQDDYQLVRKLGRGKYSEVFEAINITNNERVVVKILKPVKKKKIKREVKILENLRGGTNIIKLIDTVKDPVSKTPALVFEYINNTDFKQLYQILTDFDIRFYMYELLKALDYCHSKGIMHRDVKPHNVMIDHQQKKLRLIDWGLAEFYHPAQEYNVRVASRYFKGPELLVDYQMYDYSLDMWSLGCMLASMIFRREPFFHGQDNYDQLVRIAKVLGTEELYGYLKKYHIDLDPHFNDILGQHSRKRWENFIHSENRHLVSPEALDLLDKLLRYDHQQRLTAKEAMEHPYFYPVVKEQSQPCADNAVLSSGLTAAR
T6 sequence (Q15418 whole entry): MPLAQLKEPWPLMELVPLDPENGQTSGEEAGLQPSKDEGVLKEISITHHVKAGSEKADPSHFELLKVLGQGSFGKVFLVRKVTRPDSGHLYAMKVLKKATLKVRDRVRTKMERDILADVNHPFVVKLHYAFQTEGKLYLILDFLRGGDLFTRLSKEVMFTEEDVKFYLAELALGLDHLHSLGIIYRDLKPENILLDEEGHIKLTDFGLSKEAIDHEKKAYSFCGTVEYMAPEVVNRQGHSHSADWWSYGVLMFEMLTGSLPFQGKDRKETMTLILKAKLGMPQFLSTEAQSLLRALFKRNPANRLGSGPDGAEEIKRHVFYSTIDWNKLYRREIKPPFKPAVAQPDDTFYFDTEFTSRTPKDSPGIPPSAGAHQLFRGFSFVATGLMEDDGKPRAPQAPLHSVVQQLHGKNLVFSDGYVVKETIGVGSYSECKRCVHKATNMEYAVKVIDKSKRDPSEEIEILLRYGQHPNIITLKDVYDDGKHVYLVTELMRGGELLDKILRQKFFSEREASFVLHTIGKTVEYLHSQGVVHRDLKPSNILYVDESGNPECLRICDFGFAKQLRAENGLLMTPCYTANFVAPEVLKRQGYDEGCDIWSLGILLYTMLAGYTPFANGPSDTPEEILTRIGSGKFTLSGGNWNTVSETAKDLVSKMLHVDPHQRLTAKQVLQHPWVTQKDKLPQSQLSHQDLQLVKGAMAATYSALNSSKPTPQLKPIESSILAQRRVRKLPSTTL

| SMILES | inhibition of paw swelling ([1]; 15 mg/kg b.i.d. oral, p<0.001) | inhibition of paw swelling ([1]; 15 mg/kg q.d. oral, not significant) | inhibition of paw swelling ([1]; 25 mg/kg q.d. oral, p<0.0001) | ED50 ([1]; rat CIA model) | remaining activity at 3 µM [2] | inhibition at 10 µM [3] | inhibition at 10 µM [4] | inhibition at 10 µM [5] | AUC(0-t) ([6]; 15 mg/kg, 15 mg/kg b.i.d.) | AUC(0-t) ([6]; 15 mg/kg, 15 mg/kg q.d.) | AUC(0-t) ([6]; 25 mg/kg, 25 mg/kg q.d.) | minimal efficacious exposure ([6]; rat CIA) | remaining activity at 3 µM [7] | remaining activity at 3 µM [8] | effect in the PCA model [9] |
| --- | --- | --- | --- | --- | --- | --- | --- | --- | --- | --- | --- | --- | --- | --- | --- |
| c1cc(CC2CCOCC2)n2nc(Nc3ccc4c(NC5CCOCC5)n[nH]c4c3)nc2c1 [CC-509, [3-(2H-3,4,5,6-tetrahydropyran-4-ylamino)(1H-indazol-6-yl)][5-(2H-3,4,5,6-tetrahydropyran-4-ylmethyl)(2H-1,2,4-triazolo[1,5-a]pyridin-2-yl)]amine] | 72% | 32% | 74% | ~10 mg/kg | 67% | 89% | 73% | 90% | 60 µM·h | 22 µM·h | 45 µM·h | 45 µM·h | 97% | 60% | – |
| COc1cc(Nc2ncc(F)c(Nc3ccc4c(n3)NC(=O)C(C)(C)O4)n2)cc(OC)c1OC [R406, reference compound] | – | – | – | – | – | – | – | – | – | – | – | – | – | – | statistically significant effect |
